Assay results: patent US11040981B2, “Pyrrolotriazine compounds and methods of inhibiting TAM kinases” (Syros Pharmaceuticals, Inc., priority 2017, dated 2021)
Counter-ions that a name gives are not always drawn.

Legend:
Format in all cases: biochemical
[1] = molecular target: T1, AXL (Homo sapiens, UniProt P30530); experiment: TR-FRET kinase activity assay, AXL; conditions: ATP at Km, 60 minutes
T1 sequence (P30530 26-894): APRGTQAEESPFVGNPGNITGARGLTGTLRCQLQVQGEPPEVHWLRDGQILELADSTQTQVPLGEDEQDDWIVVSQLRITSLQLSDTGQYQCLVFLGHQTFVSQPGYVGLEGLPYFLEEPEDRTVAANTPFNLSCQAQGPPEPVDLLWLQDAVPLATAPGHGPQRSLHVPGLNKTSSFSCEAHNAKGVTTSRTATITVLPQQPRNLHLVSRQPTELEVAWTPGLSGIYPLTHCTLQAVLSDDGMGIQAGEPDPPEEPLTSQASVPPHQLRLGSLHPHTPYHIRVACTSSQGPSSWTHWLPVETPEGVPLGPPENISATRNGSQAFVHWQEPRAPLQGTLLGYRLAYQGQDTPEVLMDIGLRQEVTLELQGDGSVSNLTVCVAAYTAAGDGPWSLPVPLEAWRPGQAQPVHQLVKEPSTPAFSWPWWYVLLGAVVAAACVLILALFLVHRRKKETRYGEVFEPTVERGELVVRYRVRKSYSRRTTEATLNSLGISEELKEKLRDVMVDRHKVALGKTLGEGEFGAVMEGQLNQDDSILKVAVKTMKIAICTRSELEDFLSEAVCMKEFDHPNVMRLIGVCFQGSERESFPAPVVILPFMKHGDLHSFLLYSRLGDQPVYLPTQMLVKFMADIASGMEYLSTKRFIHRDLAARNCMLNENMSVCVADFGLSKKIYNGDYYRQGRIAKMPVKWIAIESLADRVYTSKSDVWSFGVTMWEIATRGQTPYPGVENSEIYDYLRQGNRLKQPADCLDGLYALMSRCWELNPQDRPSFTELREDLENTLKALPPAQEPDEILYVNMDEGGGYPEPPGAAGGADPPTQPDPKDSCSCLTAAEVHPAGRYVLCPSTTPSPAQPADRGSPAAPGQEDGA
Procedure: (§1) IC50 values for compound inhibition of AXL, FLT3, MERTK and TYRO3 activity were determined by using a TR-FRET activity assay. A polypeptide substrate with a fluorescent label is phosphorylated on a tyrosine by each enzyme, where the now phosphorylated product is bound by a Europium-labeled antibody specific to that phosphorylation site. The proximity between the antibody and the substrate gives a signal known as TR-FRET. As the enzyme is inhibited by compound, less phosphorylated peptide product is made causing a decrease in overall signal.
(§2) Activity assays were performed in a 384-well, small volume, black microplates in an active enzyme volume of 10 μL and final developed volume of 20 μL. Final assay conditions are 50 mM HEPES pH 7.5, 10 mM MgCl2, 1 mM EGTA, 0.01% Brij 35 and 1 mM DTT all at RT. Enzyme, substrate labeled peptide and compound are mixed, and then the reaction is initiated with the addition of ATP at Km concentration for each enzyme. The reaction is allowed to run 60 minutes and then quenched with a 12.5 mM EDTA (ethylenediamine tetraacetic acid) solution. The plate is then developed with the addition of Europium labeled antibody for a final volume of 20 μL and is then incubated for 30 minutes in darkness. Plates are read in a Pherastar plate reader. Data is analyzed in GraphPad PRISM.
(§3) The results of these assays are shown in Table 1, below, wherein “No.” designates compound number (FIG. 1); “A” represents a value of ≤100 nM; “B” a value of >100 nM and ≤1 μM; “C” a value of >1 μM and ≤10 μM; “D” a value of >10 μM; “ND” is not determined. The ratio of Mer to FLT3 is calculated as follows: FLT3 IC50/Mer IC50. “+” represents a ratio of >2.0 and <10; “++” represents a ratio of between 10 and 100; and “+++” represents a ratio of >100.

[2] = molecular target: T2, MERTK (Homo sapiens, UniProt Q12866); experiment: TR-FRET kinase activity assay, MERTK; conditions: for IC50: TR-FRET activity assay, ATP at Km, 60 minutes, read-out: Mer IC50; for FLT3/Mer ratio (FLT3 IC50/Mer IC50): ratio of Mer to FLT3: FLT3 IC50/Mer IC50
T2 sequence (Q12866 21-999): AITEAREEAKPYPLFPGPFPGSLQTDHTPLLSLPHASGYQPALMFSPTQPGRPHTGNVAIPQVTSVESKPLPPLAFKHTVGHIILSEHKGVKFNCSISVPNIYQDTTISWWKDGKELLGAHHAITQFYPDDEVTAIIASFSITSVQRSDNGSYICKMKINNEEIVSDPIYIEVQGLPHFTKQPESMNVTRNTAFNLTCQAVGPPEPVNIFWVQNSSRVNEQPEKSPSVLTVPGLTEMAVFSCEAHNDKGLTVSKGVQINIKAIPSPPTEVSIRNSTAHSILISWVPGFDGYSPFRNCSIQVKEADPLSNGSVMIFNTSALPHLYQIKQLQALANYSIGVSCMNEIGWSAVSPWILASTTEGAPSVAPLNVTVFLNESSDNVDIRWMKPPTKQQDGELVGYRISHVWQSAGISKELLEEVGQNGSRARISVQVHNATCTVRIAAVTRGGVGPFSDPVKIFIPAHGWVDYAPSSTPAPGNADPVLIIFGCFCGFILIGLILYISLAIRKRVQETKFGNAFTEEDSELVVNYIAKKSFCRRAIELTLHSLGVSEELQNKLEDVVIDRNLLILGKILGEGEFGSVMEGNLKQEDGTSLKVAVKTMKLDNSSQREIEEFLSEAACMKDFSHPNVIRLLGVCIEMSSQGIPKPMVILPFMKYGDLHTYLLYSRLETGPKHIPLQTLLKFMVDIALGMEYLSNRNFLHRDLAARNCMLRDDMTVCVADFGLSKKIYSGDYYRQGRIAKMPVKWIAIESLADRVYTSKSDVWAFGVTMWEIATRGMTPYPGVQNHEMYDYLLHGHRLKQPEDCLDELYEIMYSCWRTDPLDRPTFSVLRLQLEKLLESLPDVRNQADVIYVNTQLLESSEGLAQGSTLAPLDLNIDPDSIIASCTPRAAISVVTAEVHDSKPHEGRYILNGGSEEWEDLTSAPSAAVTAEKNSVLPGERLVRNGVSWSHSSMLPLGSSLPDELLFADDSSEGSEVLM
Procedure: as §1, §2, §3

[3] = molecular target: T3, FLT3 (Homo sapiens, UniProt P36888); experiment: TR-FRET kinase activity assay, FLT3; conditions: ATP at Km, 60 minutes
T3 sequence (P36888 27-993): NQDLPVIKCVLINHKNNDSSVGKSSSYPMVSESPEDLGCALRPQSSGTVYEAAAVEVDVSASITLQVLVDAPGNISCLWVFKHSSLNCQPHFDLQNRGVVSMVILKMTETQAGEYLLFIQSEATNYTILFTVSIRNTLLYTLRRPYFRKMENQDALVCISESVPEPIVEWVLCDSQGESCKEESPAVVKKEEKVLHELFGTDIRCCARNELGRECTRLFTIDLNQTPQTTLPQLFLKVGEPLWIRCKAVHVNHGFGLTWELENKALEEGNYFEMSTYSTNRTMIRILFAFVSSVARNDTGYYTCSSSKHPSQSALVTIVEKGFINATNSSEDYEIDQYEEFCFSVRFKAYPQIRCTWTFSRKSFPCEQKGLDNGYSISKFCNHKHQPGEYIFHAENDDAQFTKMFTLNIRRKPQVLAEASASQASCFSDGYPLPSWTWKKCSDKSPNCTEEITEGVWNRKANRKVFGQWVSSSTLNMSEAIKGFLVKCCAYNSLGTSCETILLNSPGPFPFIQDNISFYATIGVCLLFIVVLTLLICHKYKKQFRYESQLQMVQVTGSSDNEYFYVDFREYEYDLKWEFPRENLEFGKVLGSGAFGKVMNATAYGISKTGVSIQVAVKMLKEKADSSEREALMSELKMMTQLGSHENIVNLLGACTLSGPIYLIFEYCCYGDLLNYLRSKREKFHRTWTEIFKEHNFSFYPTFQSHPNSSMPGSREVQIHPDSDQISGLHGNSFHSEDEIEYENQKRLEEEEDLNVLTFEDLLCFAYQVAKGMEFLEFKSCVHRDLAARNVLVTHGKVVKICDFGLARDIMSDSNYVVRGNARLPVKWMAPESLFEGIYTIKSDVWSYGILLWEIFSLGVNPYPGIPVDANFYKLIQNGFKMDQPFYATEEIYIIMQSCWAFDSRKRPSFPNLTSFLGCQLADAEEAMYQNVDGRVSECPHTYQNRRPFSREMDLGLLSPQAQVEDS
Procedure: as §1, §2, §3

Row | IC50 [1] [µM] | IC50 [2] [µM] | IC50 [3] [µM] | Compound | FLT3/Mer ratio (FLT3 IC50/Mer IC50) [2]
1 | ≤ 0.1 | ≤ 0.1 | ≤ 0.1 | CCCCNc1ncc2c(-c3ccc(S(=O)(=O)N4CCOCC4)cc3)cc([C@H]3CC[C@H](O)CC3)n2n1 [Compound 101] | + (“+” represents a ratio of >2.0 and <10)
2 | > 10 | 0.1 to 1 | > 10 | CCCCCC(C)Nc1ncc2c(Nc3ccc(F)cc3)cc(C3CCC(O)CC3)n2n1 [Compound 106, (1S,4r)-4-(5-((4-fluorophenyl)amino)-2-((S)-heptan-2-ylamino)pyrrolo[2,1-f][1,2,4]triazin-7-yl)cyclohexanol hydrochloride] | ++ (“++” represents a ratio of between 10 and 100)
3 | > 10 | 1 to 10 | 1 to 10 | CCCCC[C@H](C)Nc1ncc2c(C(=O)Nc3ccc(F)cc3)cc(C3CCC(O)CC3)n2n1 (stereo partly drawn) [Compound 111, N-(4-fluorophenyl)-7-(4-hydroxycyclohexyl)-2-[[(1S)-1-methylhexyl]amino]pyrrolo[2,1-f][1,2,4]triazine-5-carboxamide] | + (“+” represents a ratio of >2.0 and <10)
4 |  | ≤ 0.1 | 0.1 to 1 | COC[C@H](C)Nc1ncc2c(-c3cnn(C[C@@H]4CC(=O)N(C)C4)c3)cc([C@H]3CC[C@H](O)CC3)n2n1 [Compound 476] | 
